Molecular target: T1, visual cycle isomerase (Bovine RPE microsome membranes) (Bos taurus, UniProt Q28175)
T1 construct: Bovine Retinal Pigment Epithelium (RPE) microsome membranes were the source of a visual cycle isomerase; from tissue; host or cells: bovine retinal pigment epithelium microsome membranes
T1 sequence (Q28175 2-533 limits assumed): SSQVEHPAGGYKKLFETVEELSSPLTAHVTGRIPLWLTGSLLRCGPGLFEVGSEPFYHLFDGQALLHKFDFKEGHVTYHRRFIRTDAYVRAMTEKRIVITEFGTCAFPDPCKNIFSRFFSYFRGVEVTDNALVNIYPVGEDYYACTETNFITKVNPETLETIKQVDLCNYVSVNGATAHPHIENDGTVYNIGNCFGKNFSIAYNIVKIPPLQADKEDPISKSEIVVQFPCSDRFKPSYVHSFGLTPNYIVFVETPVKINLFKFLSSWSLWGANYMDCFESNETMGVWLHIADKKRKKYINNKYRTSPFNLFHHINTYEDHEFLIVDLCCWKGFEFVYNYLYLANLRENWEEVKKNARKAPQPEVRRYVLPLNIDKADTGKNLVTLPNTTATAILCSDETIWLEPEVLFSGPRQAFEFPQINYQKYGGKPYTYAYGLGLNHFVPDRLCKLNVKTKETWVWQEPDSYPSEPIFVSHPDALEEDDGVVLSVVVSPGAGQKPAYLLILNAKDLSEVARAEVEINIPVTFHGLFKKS
Experiment: In vitro isomerase inhibition assay, bovine RPE microsome membranes
Format: biochemical
Conditions: bovine RPE microsomes; 11-cis retinol formation
Description: The capability of alkynyl phenyl-linked amine derivative compounds to inhibit the activity of a visual cycle isomerase was determined.
Bovine Retinal Pigment Epithelium (RPE) microsome membranes were the source of a visual cycle isomerase.
Crude RPE microsome extracts were thawed in a 37° C. water bath, and then immediately placed on ice. 50 ml crude RPE microsomes were placed into a 50 ml Teflon-glass homogenizer (Fisher Scientific, catalog no. 0841416M) on ice, powered by a hand-held DeWalt drill, and homogenized ten times up and down on ice under maximum speed. This process was repeated until the crude RPE microsome solution was homogenized. The homogenate was then subjected to centrifugation (50.2 Ti rotor (Beckman, Fullerton, Calif.), 13,000 RPM; 15360 Rcf) for 15 minutes at 4° C. The supernatant was collected and subjected to centrifugation at 42,000 RPM (160,000 Rcf; 50.2 Ti rotor) for 1 hour at 4° C. The supernatant was removed, and the pellets were suspended in 12 ml (final volume) cold 10 mM MOPS buffer, pH 7.0. The resuspended RPE membranes in 5 ml aliquots were homogenized in a glass-to-glass homogenizer (Fisher Scientific, catalog no. K885500-0021) to high homogeneity. Protein concentration was quantified using the BCA protein assay according to the manufacturer's protocol (Pierce, Rockford, Ill.). The homogenized RPE preparations were stored at −80° C.
Recombinant human apo cellular retinaldehyde-binding protein (CRALBP) was cloned and expressed according to standard methods in the molecular biology art (see Crabb et al., Protein Science 7:746-57 (1998); Crabb et al., J. Biol. Chem. 263:18688-92 (1988)). Briefly, total RNA was prepared from confluent ARPE19 cells (American Type Culture Collection, Manassas, Va.), cDNA was synthesized using an oligo(dT)12-18 primer, and then DNA encoding CRALBP was amplified by two sequential polymerase chain reactions (see Crabb et al., J. Biol. Chem. 263:18688-92 (1988); Intres, et al., J. Biol. Chem. 269:25411-18 (1994); GenBank Accession No. L34219.1). The PCR product was sub-cloned into pTrcHis2-TOPO TA vector according to the manufacturer's protocol (Invitrogen Inc., Carlsbad, Calif.; catalog no. K4400-01), and then the sequence was confirmed according to standard nucleotide sequencing techniques. Recombinant 6×His-tagged human CRALBP was expressed in One Shot TOP 10 chemically competent E. coli cells (Invitrogen), and the recombinant polypeptide was isolated from E. coli cell lysates by nickel affinity chromatography using nickel (Ni) Sepharose XK16-20 columns for HPLC (Amersham Bioscience, Pittsburgh, Pa.; catalog no. 17-5268-02). The purified 6×His-tagged human CRALBP was dialyzed against 10 mM bis-tris-Propane (BTP) and analyzed by SDS-PAGE. The molecular weight of the recombinant human CRALBP was approximately 39 kDal.
Alkkynyl phenyl-linked amine derivative compounds and control compounds were reconstituted in ethanol to 0.1 M. Ten-fold serial dilutions (10^−2, 10^−3, 10^−4, 10^−5, 10^−6 M) in ethanol of each compound were prepared for analysis in the isomerase assay.
The isomerase assay was performed in 10 mM bis-tris-propane (BTP) buffer, pH 7.5, 0.5% BSA (diluted in BTP buffer), 1 mM sodium pyrophosphate, 20 μM all-trans retinol (in ethanol), and 6 μM apo-CRALBP. The test compounds (2 μl) (final […] dilution of serial dilution stocks) were added to the above reaction mixture to which RPE microsomes were added. The same volume of ethanol was added to the control reaction (absence of test compound). Bovine RPE microsomes (9 μl) (see above) were then added, and the mixtures transferred to 37° C. to initiate the reaction (total volume=150 μl). The reactions were stopped after 30 minutes by adding methanol (300 μl). Heptane was added (300 μl) and mixed into the reaction mixture by pipetting. Retinoid was extracted by agitating the reaction mixtures, followed by centrifugation in a microcentrifuge. […]

| Compound | IC50 [µM] |
| --- | --- |
| NCCOc1cccc(C#Cc2cccs2)c1 [Example 95, 2-(3-(Thiophen-2-ylethynyl)phenoxy)ethanamine] | ≤ 1 |
| Cc1cccc(C#Cc2cccc(CCCN)c2)c1 [Example 87, 3-(3-(m-Tolylethynyl)phenyl)propan-1-amine] | ≤ 100 |
| NCCCc1cccc(C#CCO)c1 [Example 10, 3-(3-(3-Aminopropyl)phenyl)prop-2-yn-1-ol] | ≤ 100 |
| NCCCc1cccc(C#CCCc2ccccc2)c1 [Example 72, 3-(3-(4-Phenylbut-1-ynyl)phenyl)propan-1-amine] | ≤ 1 |
| NCCCc1cccc(C#CCc2ccccc2)c1 [Example 42, 3-(3-(3-Phenylprop-1-ynyl)phenyl)propan-1-amine] | ≤ 1 |
| NCCCc1cccc(C#CCCO)c1 [Example 34, 4-(3-(3-Aminopropyl)Phenyl)But-3-Yn-1-ol] | ≤ 100 |
| NCCOc1cccc(C#CCCO)c1 [Example 76, 4-(3-(2-Aminoethoxy)phenyl)but-3-yn-1-ol] | ≤ 100 |
| CCCCC[C@@H](O)C#Cc1cccc(CCCN)c1 [Example 15, (R)-1-(3-(3-Aminopropyl)phenyl)oct-1-yn-3-ol] | ≤ 1 |
| CC1(C)CCCC(C)(C)C1(O)C#Cc1cccc(CCCN)c1 [Example 13, 1-((3-(3-Aminopropyl)phenyl)ethynyl)-2,2,6,6-tetramethylcyclohexanol] | ≤ 10 |
| COCC#Cc1cccc(CCCN)c1 [Example 9, 3-(3-(3-Methoxyprop-1-ynyl)phenyl)propan-1-amine] | ≤ 10 |
| CC(C)CC(C)(O)C#Cc1cccc(CCCN)c1 (stereo not shown) [Example 6, 1-(3-(3-Aminopropyl)phenyl)-3,5-dimethylhex-1-yn-3-ol] | ≤ 1 |
| CCCCCC#Cc1cccc(CCCN)c1 [Example 102, 3-(3-(Hept-1-ynyl)phenyl)propan-1-amine] | ≤ 1 |
| NCCCc1cccc(C#CCCCCO)c1 [Example 68, 6-(3-(3-Aminopropyl)phenyl)hex-5-yn-1-ol] | ≤ 1 |
| CC(C)C(O)C#Cc1cccc(CCCN)c1 (stereo not shown) [Example 23, 1-(3-(3-Aminopropyl)phenyl)-4-methylpent-1-yn-3-ol] | ≤ 1 |
| CCCC(O)(C#Cc1cccc(CCN)c1)CCC [Example 141, 4-((3-(2-Aminoethyl)phenyl)ethynyl)heptan-4-ol] | ≤ 1 |
| CCCCC(O)(C#Cc1cccc(CCCN)c1)CCCC [Example 3, 5-((3-(3-Aminopropyl)phenyl)ethynyl)nonan-5-ol] | ≤ 1 |
| CC(C)C(C)(O)C#Cc1cccc(CCCN)c1 (stereo not shown) [Example 21, 1-(3-(3-Aminopropyl)phenyl)-3,4-dimethylpent-1-yn-3-ol] | ≤ 1 |

More lines, now with the values ahead:

| IC50 [µM] | Compound |
| --- | --- |
| ≤ 10 | CC(C)(C)C(O)(C#Cc1cccc(CCCN)c1)C(C)(C)C [Example 12, 1-(3-(3-Aminopropyl)phenyl)-3-tert-butyl-4,4-dimethylpent-1-yn-3-ol] |
| ≤ 10 | N#Cc1cccc(C#Cc2cccc(OCCN)c2)c1 [Example 88, 3-((3-(2-Aminoethoxy)phenyl)ethynyl)benzonitrile] |
| ≤ 1000 | NCCCc1cccc(C#Cc2ccc3ccccc3c2)c1 [Example 45, 3-(3-(Naphthalen-2-ylethynyl)phenyl)propan-1-amine] |
| ≤ 1 | CCCCCC#Cc1cccc(C(O)CCN)c1 (stereo not shown) [Example 53, 3-Amino-1-(3-(hept-1-ynyl)phenyl)propan-1-ol] |
| ≤ 1000 | CC(C)(C)c1cc(C#Cc2cccc(CCCN)c2)cc(C(C)(C)C)c1 [Example 93, 3-(3-((3,5-Di-tert-butylphenyl)ethynyl)phenyl)propan-1-amine] |
| ≤ 10 | CC(O)CC#Cc1cccc(CCCN)c1 (stereo not shown) [Example 35, 5-(3-(3-Aminopropyl)phenyl)pent-4-yn-2-ol] |
| ≤ 10 | NCCOc1cccc(C#Cc2ccsc2)c1 [Example 96, 2-(3-(Thiophen-3-ylethynyl)phenoxy)ethanamine] |
| ≤ 100 | NCCCc1cccc(C#Cc2cccc3ccccc23)c1 [Example 82, 3-(3-(Naphthalen-1-ylethynyl)phenyl)propan-1-amine] |
